A short description of data set [1]: Acute toxicity in Wistar rat assessed as behavioral changes at 200 mg/kg, po administered for 7 days and observed for 14 days. Type of data set: organism-based. The following applies: in vivo, 336 h, time 14 day.
Data set [2] can be described thus: Acute toxicity in Wistar rat assessed as survival at 200 mg/kg, po administered for 7 days and observed for 14 days. To be noted: in vivo, 336 h, time 14 day. It counts as organism-based.
A short description of data set [3]: Acute toxicity in Wistar rat assessed as behavioral changes at 100 mg/kg, po administered for 7 days and observed for 14 days. Type of data set: organism-based. The following applies: in vivo, 336 h, time 14 day.
The nature of data set [4]: Acute toxicity in Wistar rat assessed as survival at 100 mg/kg, po administered for 7 days and observed for 14 days. It counts as organism-based. The following applies: in vivo, 336 h, time 14 day.
The subject of data set [5] is Rattus norvegicus. The data set can be described thus: Anti-inflammatory activity in Wistar rat assessed as inhibition of carrageenan-induced paw edema at 20 mg/kg, po administered 1 hr prior to carrageenan stimulation and measured after 3 hrs by plethysmometric method relative to control. It counts as functional. Also on record: scale not given: the % may be the effect or the level left. The following applies: time 4 hrs.

The subject of data set [6] is Rattus norvegicus. Kind of data set: Anti-inflammatory activity in Wistar rat assessed as inhibition of carrageenan-induced paw edema at 20 mg/kg, po administered 1 hr prior to carrageenan stimulation and measured after 4 hrs by plethysmometric method relative to control. It counts as functional. On the set-up: scale not given: the % may be the effect or the level left. To be noted: time 5 hrs. (In the carrageenan paw model, swelling and tenderness develop within hours.)

The next data set relates to Mus musculus. The data set can be described thus: Analgesic activity in Swiss albino mouse assessed as inhibition of acetic acid-induced writhing at 20 mg/kg, po administered 30 mins prior to acetic acid treatment and measured for 20 mins. Type of data set: functional. On the set-up: scale not given: the % may be the effect or the level left. To be noted: time 50 min. Background: Writhing tests count abdominal constrictions after an irritant is injected.

Data set [7] is described as follows: Acute toxicity in Swiss albino mouse assessed as behavioral changes at 200 mg/kg, po administered for 7 days and observed for 14 days. Type of data set: organism-based. The following applies: in vivo, 336 h, time 14 day.
Data set [8] is described as follows: Acute toxicity in Swiss albino mouse assessed as survival at 100 mg/kg, po administered for 7 days and observed for 14 days. To be noted: in vivo, 336 h, time 14 day. Type of data set: organism-based.
Data set [9] is described as follows: Acute toxicity in Swiss albino mouse assessed as behavioral changes at 100 mg/kg, po administered for 7 days and observed for 14 days. It counts as organism-based. The following applies: in vivo, 336 h, time 14 day.
Data set [10] can be described thus: Ulcerogenic activity in Wistar rat assessed as incidence of gastric ulceration by measuring severity index at 60 mg/kg, po measured after 17 hrs by microscopic analysis. Type of data set: toxicity, organism-based. The following applies: in vivo.
The nature of data set [11]: Acute toxicity in Swiss albino mouse assessed as survival at 200 mg/kg, po administered for 7 days and observed for 14 days. Type of data set: organism-based. To be noted: in vivo, 336 h, time 14 day.
The target of data set [12] is Prostaglandin G/H synthase 1 (Homo sapiens, UniProt P23219). The data set can be described thus: Inhibition of COX-1 (unknown origin) assessed as reduction in PGH2 formation using arachidonic acid as substrate preincubated for 5 mins followed by substrate addition and measured after 2 mins by enzyme immunoassay.
Sequence of Prostaglandin G/H synthase 1 (P23219 whole entry): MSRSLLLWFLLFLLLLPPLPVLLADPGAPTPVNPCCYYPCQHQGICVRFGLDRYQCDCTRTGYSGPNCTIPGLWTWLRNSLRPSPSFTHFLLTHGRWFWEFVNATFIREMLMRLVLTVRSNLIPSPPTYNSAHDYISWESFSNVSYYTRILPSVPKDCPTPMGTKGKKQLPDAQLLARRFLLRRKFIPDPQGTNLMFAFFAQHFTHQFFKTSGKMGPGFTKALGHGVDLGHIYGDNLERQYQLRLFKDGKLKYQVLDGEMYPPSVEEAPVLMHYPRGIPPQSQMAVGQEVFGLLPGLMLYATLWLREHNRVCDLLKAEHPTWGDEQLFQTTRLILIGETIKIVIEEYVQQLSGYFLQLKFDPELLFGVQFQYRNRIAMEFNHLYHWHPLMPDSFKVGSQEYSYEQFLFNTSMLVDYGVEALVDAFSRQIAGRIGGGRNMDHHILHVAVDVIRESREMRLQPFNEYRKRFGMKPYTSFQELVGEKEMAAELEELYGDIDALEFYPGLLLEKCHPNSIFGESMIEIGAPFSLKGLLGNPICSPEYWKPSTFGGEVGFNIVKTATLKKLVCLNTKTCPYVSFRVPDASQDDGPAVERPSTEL
Data set [13] addresses T1, Prostaglandin G/H synthase 2 (Homo sapiens, UniProt P35354).
T1 sequence (P35354 whole entry): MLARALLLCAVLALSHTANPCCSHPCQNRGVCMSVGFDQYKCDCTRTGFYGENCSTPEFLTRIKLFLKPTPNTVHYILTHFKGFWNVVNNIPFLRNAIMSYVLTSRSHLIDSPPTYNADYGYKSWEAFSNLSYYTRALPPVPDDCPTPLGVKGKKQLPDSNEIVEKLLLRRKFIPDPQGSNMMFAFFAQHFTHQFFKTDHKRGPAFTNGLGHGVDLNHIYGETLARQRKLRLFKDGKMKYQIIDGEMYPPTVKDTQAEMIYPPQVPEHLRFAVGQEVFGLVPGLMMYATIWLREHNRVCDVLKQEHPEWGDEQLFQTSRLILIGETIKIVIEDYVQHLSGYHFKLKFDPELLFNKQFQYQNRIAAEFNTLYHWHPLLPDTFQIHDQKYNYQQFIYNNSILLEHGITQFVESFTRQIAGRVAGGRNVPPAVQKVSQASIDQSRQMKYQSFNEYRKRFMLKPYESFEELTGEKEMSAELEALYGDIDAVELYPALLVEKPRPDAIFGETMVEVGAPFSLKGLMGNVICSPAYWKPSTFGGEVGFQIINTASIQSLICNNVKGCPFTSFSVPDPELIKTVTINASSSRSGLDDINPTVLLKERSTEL
Kind of data set: Inhibition of COX-2 (unknown origin) assessed as reduction in PGH2 formation using arachidonic acid as substrate preincubated for 5 mins followed by substrate addition and measured after 2 mins by enzyme immunoassay.

Usually IC50 stands for the midpoint of a concentration-inhibition curve.

Regarding `O=C(/C=C/c1ccc(O)c(O)c1)NNC(=O)COc1ccc2ccccc2c1`, the Activity entry is given as “Non-Toxic” in [1]; “Non-Toxic” in data set [2]; “Non-Toxic” in data set [3]; “Non-Toxic” in data set [4]; 51.61% with Rattus norvegicus [5]; 48.7% with Rattus norvegicus [6]. The Activity with Mus musculus is 65.1%; in data set [7] it was “Non-Toxic”; in [8] it was “Non-Toxic”; in data set [9], “Non-Toxic”; in [11], “Non-Toxic”. In addition, in [10], the Activity_index is recorded as 0.57.
As to `O=C(/C=C/c1ccc(O)c(O)c1)NNC(=O)COc1ccc(Br)cc1`, the Activity result in [1] was “Non-Toxic”; in data set [2] it was “Non-Toxic”; in data set [3], “Non-Toxic”; in data set [4] it was “Non-Toxic”; in the data set with Rattus norvegicus [5], 74.9%; with Rattus norvegicus [6], 71.15%. Further, the Activity in the data set on Mus musculus is 71.35%; in data set [7], “Non-Toxic”; in data set [8], “Non-Toxic”; in data set [9], “Non-Toxic”; in data set [11], “Non-Toxic”. Also, the Activity_index in data set [10] was determined as 0.78. The half-maximal inhibitory concentration (IC50) in data set [12] was determined as 233 µM; in data set [13], 3.4 µM.
Regarding `O=C(/C=C/c1ccc(O)c(O)c1)NNC(=O)COc1cccc2cccnc12`, the Activity result is on record as “Non-Toxic” in [1]; “Non-Toxic” in [2]; “Non-Toxic” in data set [3]; “Non-Toxic” in data set [4]; 66.61% in the data set with Rattus norvegicus [5]; 61.47% in the data set with Rattus norvegicus [6]. Besides, the Activity in the data set with Mus musculus is recorded as 57.3%; in data set [7] it was “Non-Toxic”; in [8], “Non-Toxic”; in data set [9], “Non-Toxic”; in data set [11], “Non-Toxic”. For the same molecule, in data set [10], the Activity_index stood at 0.53. Further, the 50% inhibitory concentration (IC50) is 126 µM in data set [12] and 4.9 µM in data set [13].
For the molecule `Cc1ccc2cccc(OCC(=O)NNC(=O)/C=C/c3ccc(O)c(O)c3)c2n1`, the Activity result is listed as “Non-Toxic” in [1]; “Non-Toxic” in data set [2]; “Non-Toxic” in data set [3]; “Non-Toxic” in data set [4]; 57.19% in the data set with Rattus norvegicus [5]; 53.15% with Rattus norvegicus [6]. In addition, the Activity is given as 49.02% in the data set with Mus musculus; “Non-Toxic” in data set [7]; “Non-Toxic” in data set [8]; “Non-Toxic” in data set [9]; “Non-Toxic” in data set [11]. In [10], the Activity_index is listed as 0.57.
For the molecule `Cc1ccccc1OCC(=O)NNC(=O)/C=C/c1ccc(O)c(O)c1`, the Activity result is “Non-Toxic” in data set [1]; “Non-Toxic” in data set [2]; “Non-Toxic” in data set [3]; “Non-Toxic” in [4]; 54.96% in the data set with Rattus norvegicus [5]; 49.83% in the data set on Rattus norvegicus [6]. In addition, the Activity is 49.18% in the data set with Mus musculus; “Non-Toxic” in data set [7]; “Non-Toxic” in data set [8]; “Non-Toxic” in [9]; “Non-Toxic” in data set [11]. Besides, the Activity_index in data set [10] amounted to 0.58.
In the case of `Cc1ccc(-c2cc(C(F)(F)F)nn2-c2ccc(S(N)(=O)=O)cc2)cc1` [CELECOXIB], the Activity with Rattus norvegicus [5] stood at 78%; with Rattus norvegicus [6] it was 74.56%; in the data set with Mus musculus it was 73.53%.
In the case of `O=C(/C=C/c1ccc(O)c(O)c1)NNC(=O)COc1ccc(Cl)cc1`, the Activity result in [1] was “Non-Toxic”; in [2], “Non-Toxic”; in data set [3] it was “Non-Toxic”; in [4] it was “Non-Toxic”; with Rattus norvegicus [5], 75.17%; in the data set with Rattus norvegicus [6], 72.29%. The Activity with Mus musculus is 67.85%; in [7], “Non-Toxic”; in [8] it was “Non-Toxic”; in data set [9] it was “Non-Toxic”; in data set [11], “Non-Toxic”. Also, the Activity_index in data set [10] came out at 0.76. The results for the 50% inhibitory concentration (IC50) in [12] and in data set [13] were 214 µM and 3.17 µM, respectively.
On to `Cc1ccc(OCC(=O)NNC(=O)/C=C/c2ccc(O)c(O)c2)c(C)c1`, for which the Activity entry in [1] is “Non-Toxic”; in [2], “Non-Toxic”; in [3], “Non-Toxic”; in data set [4] it was “Non-Toxic”; in the data set on Rattus norvegicus [5], 67.18%; in the data set with Rattus norvegicus [6] it was 64.45%. The Activity with Mus musculus is 45.21%; in data set [7], “Non-Toxic”; in data set [8], “Non-Toxic”; in [9], “Non-Toxic”; in data set [11], “Non-Toxic”. The Activity_index in data set [10] is 0.26. The figures for the half-inhibitory concentration (IC50) in data set [12] and in data set [13] were 107 µM and 2.1 µM, respectively.
`O=C(/C=C/c1ccc(O)c(O)c1)NNC(=O)COc1cccc2ccccc12`: the Activity result in data set [1] is “Non-Toxic”; in data set [2], “Non-Toxic”; in data set [3], “Non-Toxic”; in [4] it was “Non-Toxic”; with Rattus norvegicus [5], 49.96%; with Rattus norvegicus [6] it was 44.45%. The Activity in the data set on Mus musculus is given as 50.7%; in [7], “Non-Toxic”; in data set [8], “Non-Toxic”; in data set [9], “Non-Toxic”; in [11], “Non-Toxic”. In addition, the Activity_index in data set [10] is 0.46.
Regarding `Cc1ccc(OCC(=O)NNC(=O)/C=C/c2ccc(O)c(O)c2)cc1`, the Activity entry in [1] is “Non-Toxic”; in data set [2], “Non-Toxic”; in [3] it was “Non-Toxic”; in [4] it was “Non-Toxic”; in the data set with Rattus norvegicus [5] it was 58.71%; in the data set with Rattus norvegicus [6] it was 55.53%. For the same molecule, the Activity in the data set with Mus musculus is listed as 64.68%; in data set [7] it was “Non-Toxic”; in [8] it was “Non-Toxic”; in data set [9], “Non-Toxic”; in data set [11], “Non-Toxic”. The Activity_index in data set [10] stood at 0.38.
Turning to `O=C(/C=C/c1ccc(O)c(O)c1)NNC(=O)COc1cccnc1`, the Activity result in data set [1] is recorded as “Non-Toxic”; in [2], “Non-Toxic”; in [3], “Non-Toxic”; in data set [4], “Non-Toxic”; in the data set on Rattus norvegicus [5], 63.96%; in the data set with Rattus norvegicus [6], 60.82%. For the same molecule, the Activity is on record as 53.41% with Mus musculus; “Non-Toxic” in data set [7]; “Non-Toxic” in data set [8]; “Non-Toxic” in data set [9]; “Non-Toxic” in [11]. The Activity_index in data set [10] was 0.4. Moreover, the half-maximal inhibitory concentration (IC50) in data set [12] is 182 µM; in data set [13] it was 5 µM.

(Values after ChEMBL document CHEMBL4673359, “Molecular docking and synthesis of caffeic acid analogous and its anti-inflammatory, analgesic and ulcerogenic studies” (Bioorg Med Chem Lett, 2021).)
